Data from ChEMBL document CHEMBL1201862, “PubChem BioAssay data set” (2004).
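All cell lines were grown in 96-well plates and treated with compound for 48 hours. GI50 is the concentration that inhibits growth by half.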 Activity calls are given as the source filed them. Cut-off read from the data, not from the text of the source: active = GI50 up to about 1.1 µM and inactive = higher.

Experiments:
Assay in all cases: inhibition of tumour cell growth, NCI panel, 48 h
A498 = test system: A498
U-251 = test system: U-251
SK-MEL-2 = test system: SK-MEL-2
HCT-116 = test system: HCT-116
UACC-257 = test system: UACC-257
SNB-19 = test system: SNB-19
KM12 = test system: KM12
NCI-H23 = test system: NCI-H23
MDA-MB-231 = test system: MDA-MB-231
PC-3 = test system: PC-3
786-0 = test system: 786-0
OVCAR-8 = test system: OVCAR-8
IGROV-1 = test system: IGROV-1
BT-549 = test system: BT-549
MDA-MB-435 = test system: MDA-MB-435
HCC 2998 = test system: HCC 2998
SF-268 = test system: SF-268
SF-295 = test system: SF-295
OVCAR-5 = test system: OVCAR-5
SK-OV-3 = test system: SK-OV-3
A549 = test system: A549
HOP-62 = test system: HOP-62
OVCAR-3 = test system: OVCAR-3
CCRF-CEM = test system: CCRF-CEM
SNB-75 = test system: SNB-75
UACC-62 = test system: UACC-62
SW-620 = test system: SW-620
TK-10 = test system: TK-10
CAKI-1 = test system: CAKI-1
MOLT-4 = test system: MOLT-4
NCI-H522 = test system: NCI-H522
ACHN = test system: ACHN
SN12C = test system: SN12C
COLO 205 = test system: COLO 205
K562 = test system: K562
HOP-92 = test system: HOP-92
NCI-H226 = test system: NCI-H226
HCT-15 = test system: HCT-15
SR = test system: SR
NCI/ADR-RES = test system: NCI/ADR-RES
RPMI-8226 = test system: RPMI-8226
HL-60 = test system: HL-60
SK-MEL-28 = test system: SK-MEL-28
SK-MEL-5 = test system: SK-MEL-5
HT-29 = test system: HT-29
LOX IMVI = test system: LOX IMVI
MCF7 = test system: MCF7
OVCAR-4 = test system: OVCAR-4
MDA-N = test system: MDA-N
NCI-H460 = test system: NCI-H460
SF-539 = test system: SF-539
T47D = test system: T47D
DU-145 = test system: DU-145
M14 = test system: M14
Hs-578T = test system: Hs-578T
Malme-3M = test system: Malme-3M
RXF 393 = test system: RXF 393
UO-31 = test system: UO-31
EKVX = test system: EKVX

## COC(=O)c1cc2c(o1)Sc1ccccc1NC2=O
A498
  GI50: > 100 µM (inactive)
U-251
  GI50: 83.2 µM (inactive)
SK-MEL-2
  GI50: > 100 µM (inactive)
HCT-116
  GI50: > 100 µM (inactive)
UACC-257
  GI50: > 100 µM (inactive)
SNB-19
  GI50: 35.9 µM (inactive)
KM12
  GI50: > 100 µM (inactive)
NCI-H23
  GI50: > 100 µM (inactive)
MDA-MB-231
  GI50: > 100 µM (inactive)
PC-3
  GI50: > 100 µM (inactive)
786-0
  GI50: 87.1 µM (inactive)
OVCAR-8
  GI50: 68.5 µM (inactive)
IGROV-1
  GI50: > 100 µM (inactive)
BT-549
  GI50: > 100 µM (inactive)
MDA-MB-435
  GI50: > 100 µM (inactive)
HCC 2998
  GI50: > 100 µM (inactive)
SF-268
  GI50: 31.8 µM (inactive)
SF-295
  GI50: > 100 µM (inactive)
OVCAR-5
  GI50: > 100 µM (inactive)
SK-OV-3
  GI50: > 100 µM (inactive)
A549
  GI50: > 100 µM (inactive)
HOP-62
  GI50: 52.1 µM (inactive)
OVCAR-3
  GI50: > 100 µM (inactive)
CCRF-CEM
  GI50: > 100 µM (inactive)
SNB-75
  GI50: 24.8 µM (inactive)
UACC-62
  GI50: > 100 µM (inactive)
SW-620
  GI50: > 100 µM (inactive)
TK-10
  GI50: > 100 µM (inactive)
CAKI-1
  GI50: > 100 µM (inactive)
MOLT-4
  GI50: > 100 µM (inactive)
NCI-H522
  GI50: 2.75 µM (inactive)
ACHN
  GI50: 27.1 µM (inactive)
SN12C
  GI50: > 100 µM (inactive)
COLO 205
  GI50: > 100 µM (inactive)
K562
  GI50: > 100 µM (inactive)
HOP-92
  GI50: > 100 µM (inactive)
NCI-H226
  GI50: > 100 µM (inactive)
HCT-15
  GI50: > 100 µM
SR
  GI50: > 100 µM (inactive)
NCI/ADR-RES
  GI50: > 100 µM (inactive)
RPMI-8226
  GI50: > 100 µM (inactive)
HL-60
  GI50: > 100 µM (inactive)
SK-MEL-28
  GI50: > 100 µM (inactive)
SK-MEL-5
  GI50: > 100 µM (inactive)
HT-29
  GI50: > 100 µM (inactive)
LOX IMVI
  GI50: > 100 µM (inactive)
MCF7
  GI50: > 100 µM (inactive)
OVCAR-4
  GI50: > 100 µM (inactive)
MDA-N
  GI50: > 100 µM (inactive)
NCI-H460
  GI50: > 100 µM (inactive)
SF-539
  GI50: 29 µM (inactive)
T47D
  GI50: > 100 µM (inactive)
DU-145
  GI50: > 100 µM (inactive)
M14
  GI50: > 100 µM (inactive)
Hs-578T
  GI50: 27.7 µM (inactive)

## COc1cc(S(=O)(=O)N/N=C/C=C/c2ccccc2)c(OC)cc1NC(C)=O
A498
  GI50: > 100 µM (inactive)
SK-MEL-2
  GI50: 47 µM (inactive)
Malme-3M
  GI50: 35.6 µM (inactive)
HCT-116
  GI50: 91.2 µM (inactive)
UACC-257
  GI50: 30.2 µM (inactive)
SNB-19
  GI50: > 100 µM (inactive)
KM12
  GI50: 42.3 µM (inactive)
NCI-H23
  GI50: 41.8 µM (inactive)
PC-3
  GI50: 77.8 µM (inactive)
786-0
  GI50: 91.8 µM (inactive)
OVCAR-8
  GI50: 12.2 µM (inactive)
RXF 393
  GI50: 21.1 µM (inactive)
IGROV-1
  GI50: 17.8 µM (inactive)
BT-549
  GI50: 42.1 µM (inactive)
MDA-MB-435
  GI50: 38.8 µM (inactive)
SF-268
  GI50: 35.4 µM (inactive)
SF-295
  GI50: > 100 µM (inactive)
OVCAR-5
  GI50: 38.6 µM (inactive)
SK-OV-3
  GI50: > 100 µM (inactive)
A549
  GI50: > 100 µM (inactive)
HOP-62
  GI50: > 100 µM (inactive)
OVCAR-3
  GI50: 40.7 µM (inactive)
CCRF-CEM
  GI50: 69.5 µM (inactive)
SNB-75
  GI50: > 100 µM (inactive)
UACC-62
  GI50: 86.9 µM (inactive)
SW-620
  GI50: 25.4 µM (inactive)
CAKI-1
  GI50: 16 µM (inactive)
NCI-H522
  GI50: 25.2 µM (inactive)
ACHN
  GI50: > 100 µM (inactive)
UO-31
  GI50: 42.9 µM (inactive)
SN12C
  GI50: 51.9 µM (inactive)
COLO 205
  GI50: 17.7 µM (inactive)
HOP-92
  GI50: 30.3 µM (inactive)
HCT-15
  GI50: 19.5 µM
SR
  GI50: 12.3 µM (inactive)
NCI/ADR-RES
  GI50: 9.59 µM (inactive)
RPMI-8226
  GI50: 19.1 µM (inactive)
HL-60
  GI50: 33 µM (inactive)
SK-MEL-28
  GI50: 56.5 µM (inactive)
SK-MEL-5
  GI50: 3.73 µM (inactive)
HT-29
  GI50: 9.62 µM (inactive)
LOX IMVI
  GI50: 15.5 µM (inactive)
MCF7
  GI50: 52.2 µM (inactive)
OVCAR-4
  GI50: 19.6 µM (inactive)
MDA-N
  GI50: 78.9 µM (inactive)
SF-539
  GI50: 5.26 µM (inactive)
T47D
  GI50: 69.5 µM (inactive)
EKVX
  GI50: 5.14 µM (inactive)
DU-145
  GI50: 31.8 µM (inactive)
M14
  GI50: 21.9 µM (inactive)
Hs-578T
  GI50: 26.4 µM (inactive)

## CCc1n[nH]c(=O)n1NC(=O)CCCC(=O)O
A498
  GI50: > 100 µM (inactive)
U-251
  GI50: > 100 µM (inactive)
SK-MEL-2
  GI50: > 100 µM (inactive)
Malme-3M
  GI50: > 100 µM (inactive)
HCT-116
  GI50: > 100 µM (inactive)
UACC-257
  GI50: > 100 µM (inactive)
SNB-19
  GI50: > 100 µM (inactive)
KM12
  GI50: > 100 µM (inactive)
NCI-H23
  GI50: > 100 µM (inactive)
MDA-MB-231
  GI50: > 100 µM (inactive)
PC-3
  GI50: > 100 µM (inactive)
786-0
  GI50: > 100 µM (inactive)
OVCAR-8
  GI50: > 100 µM (inactive)
RXF 393
  GI50: > 100 µM (inactive)
IGROV-1
  GI50: > 100 µM (inactive)
BT-549
  GI50: > 100 µM (inactive)
MDA-MB-435
  GI50: > 100 µM (inactive)
HCC 2998
  GI50: > 100 µM (inactive)
SF-268
  GI50: > 100 µM (inactive)
SF-295
  GI50: > 100 µM (inactive)
OVCAR-5
  GI50: > 100 µM (inactive)
SK-OV-3
  GI50: > 100 µM (inactive)
A549
  GI50: > 100 µM (inactive)
HOP-62
  GI50: > 100 µM (inactive)
OVCAR-3
  GI50: > 100 µM (inactive)
CCRF-CEM
  GI50: > 100 µM (inactive)
UACC-62
  GI50: > 100 µM (inactive)
SW-620
  GI50: > 100 µM (inactive)
TK-10
  GI50: > 100 µM (inactive)
CAKI-1
  GI50: > 100 µM (inactive)
MOLT-4
  GI50: > 100 µM (inactive)
NCI-H522
  GI50: > 100 µM (inactive)
ACHN
  GI50: > 100 µM (inactive)
UO-31
  GI50: > 100 µM (inactive)
SN12C
  GI50: > 100 µM (inactive)
COLO 205
  GI50: > 100 µM (inactive)
K562
  GI50: > 100 µM (inactive)
HOP-92
  GI50: > 100 µM (inactive)
NCI-H226
  GI50: > 100 µM (inactive)
HCT-15
  GI50: > 100 µM
SR
  GI50: > 100 µM (inactive)
NCI/ADR-RES
  GI50: > 100 µM (inactive)
RPMI-8226
  GI50: > 100 µM (inactive)
SK-MEL-5
  GI50: > 100 µM (inactive)
HT-29
  GI50: > 100 µM (inactive)
LOX IMVI
  GI50: > 100 µM (inactive)
MCF7
  GI50: > 100 µM (inactive)
OVCAR-4
  GI50: > 100 µM (inactive)
MDA-N
  GI50: > 100 µM (inactive)
NCI-H460
  GI50: > 100 µM (inactive)
SF-539
  GI50: > 100 µM (inactive)
T47D
  GI50: > 100 µM (inactive)
EKVX
  GI50: > 100 µM (inactive)
M14
  GI50: > 100 µM (inactive)
Hs-578T
  GI50: > 100 µM (inactive)
